# Values quoted from earlier work, collected in patent US20240156798A1, “ANTIOXIDANT COMPOSITIONS AND METHODS OF USE” (Sanare Pharmaceuticals, priority 2022, published 2024).
# “Also recorded” adds a separate entry of the source. Like-named read-outs stand apart in the source and are kept apart here.
# What was measured:
# [1] = system: gene expression
# [2] = system: radiation induced alopecia; details: topical, human clinical trials
# [3] = system: ocular damage; details: topical application, rat
# [4] = system: ocular damage; details: topical application, rhesus monkey
# [5] = hundreds of animal models
# [6] = system: chemically induced colitis; details: in vivo
# [7] = system: experimentally induced glaucoma; details: C57BL/6J mice
# [8] = system: high fat diet induced NAFLD; details: for high fat diet induced NAFLD: mice fed a high fat diet
# [9] = system: ocular alkali burn; details: in vivo
# [10] = system: retinal degeneration; details: several models of neurodegeneration and damage, including retinal degeneration
# [11] = system: U.C.; details: U.C. patients, open label
# [12] = system: retinal ganglion cell (RCG) death after optic nerve crush
# [13] = system: human retinal pigment epithelium (RPE)
# [14] = system: dry eye; details: eye drop administration
# [15] = system: photo-induced retinal degeneration; details: intraperitoneal injection
# [16] = system: IBD; details: 168 patients, double blind, placebo-controlled
# [17] = system: normal tension glaucoma (NTG)
# [18] = system: retinitis pigmentosa
# [19] = system: acetic acid-induced experimental colitis; details: NAC 100 mg/kg for seven days
# [20] = systemic treatment, following optic nerve crush
# [21] = RPE from both positive and negative AMD donors
compound,measurement,setting,value
"4-hydroxy-2,2,6,6-tetramethylpiperidin-1-oxyl [TEMPOL]",Glutathione S-Transferase (GST) gene(s) expression,[1],significantly increased
same,TNFα regulation,[1],downregulates
same,expression levels of keratinocyte growth factor (KGF) gene,[1],statistically increased
same,expression of HIF-1α,[1],statistically decreased
same,expression of HIF-2α,[1],statistically decreased
same,expression of genes encoding for the 26s proteasome complex,[1],significantly decreased
same,expression of the ADIPOQ gene,[1],statistically increased
same,UNC5b,[1]; cancer cells,significantly increases
same,radiation induced alopecia,[2],protect
same,ocular damage,[3],decrease
same,ocular damage,[4],decrease
same,safety concerns,[5],No safety concerns
same,degree of both neutrophil inflammation and lipid peroxidation in the inflamed bowel,[6],Reduction in the degree of both neutrophil
same,neuro-inflammation in the ocular hypertensive retina and optic nerve,[7],decreased
same,high fat diet induced NAFLD,[8],Can treat and prevent NAFLD in mice
"C[C@H](CCC(=O)NCCS(=O)(=O)O)[C@H]1CC[C@H]2[C@@H]3[C@@H](O)C[C@@H]4C[C@H](O)CC[C@]4(C)[C@H]3CC[C@]12C [TUDCA, tauroursodeoxycholic acid]",cornea and retina injury,[9],protect
same,ocular inflammation,[9],inhibit
same,apoptosis following cellular injury,[10],block
same,chemically induced colitis,[6],Active against chemically induced colitis
same,Phase 1 study testing efficacy and safety,[11],Positive results in an open label Phase 1; also recorded: Positive results in Phase 1 study testing
same,retinal ganglion cells in the optic crush model,[12]; in vivo,Protects retinal ganglia cells in the optic; also recorded: Protects retinal ganglion cells in the optic
same,RCGs survival,[12]; [20],significantly enhanced
same,apoptosis,[12]; [20],suppressed
same,progression of HFD induced NALFD,"[8]; TUDCA alone, mice",attenuate
same,high fat diet induced NAFLD,[8],markedly reduces
same,gut inflammation,"[8]; mouse, in vivo",attenuates; also recorded: ameliorating
same,intestinal barrier function,"[8]; mouse, in vivo",improves; also recorded: improving
same,intestinal fat transport,"[8]; mouse, in vivo",decreases; also recorded: decreasing
same,intestinal microbiota composition,"[8]; mouse, in vivo",modulates; also recorded: modulating
"CC(=O)N[C@@H](CS)C(=O)O [NAC, N-acetyl-cysteine]",basal GSH content,[13]; AMD RPE,increase
same,basal ROS,[13]; AMD RPE,reduction
same,GSH depletion,"[13]; H2O2, RPE from both positive and negative AMD donors",preventing
same,H2O2 induced cell death,[13]; [21],preventing
same,excessive ROS accumulation,[13]; [21],blocking
same,basal mitochondrial function (ATP),[13]; both groups of cells,improved
same,effect on primary cultures of human RPE,[13]; patients with AMD,positive (protective) effect
same,levels of ROS and inflammasome signaling,[14],diminished
same,oxidation and ER stresses,[15],suppressed
same,ROS accumulation in the retina,[15]; Balb/c mouse,inhibiting
same,Phase 2 study result,[16],Positive results in a Phase 2
same,glutathione levels,[17]; EAAC1 KO mice,increased
same,oxidative stress and autophagy,[17]; EAAC1 KO mice,suppressed
same,effect on retinal degeneration,[17]; mouse model of NTG,protective effect
same,decline of retinal function,"[17]; mouse, in vivo",prevented
same,"retinal ganglion cells (RGC), NTG-like neurodegeneration","[17]; mouse, in vivo",protected
same,chemically induced colitis,[6],Protects against chemically induced
same,penetration to the posterior segment,[18]; applied to the cornea,able to penetrate to the posterior segment
same,protecting the retina from oxidative damage,[18]; applied topically to the eye,effective
same,macroscopic and histological findings,[19],protective role
same,GSH concentration,[19]; compared to vehicle controls,restoration
same,NO concentration,[19]; compared to vehicle controls,restoration
same,colon tissue MPO activity,[19]; compared to vehicle controls,significant decrease
same,glucose tolerance,[8]; HFD mice,improved
same,morphology of hepatic tissue,[8]; HFD mice,totally restored
same,hepatic steatosis and metabolic disturbances,"[8]; mice fed high fat diets (HFD), compared to normally fed mice",significantly reduced
